Experimental data published in ChEMBL document CHEMBL3885881, “DrugMatrix”.

Organism: Rattus norvegicus
Experiment: DrugMatrix - Regimen: Daily Repeat
Type: toxicity, organism-based, Sprague-Dawley
Parameters: regimen Daily Repeat, gender Male, age 6-8 weeks
Settings: in vivo, po, route oral GAVAGE, vehicle 100 % WATER; for ABSOLUTE BASOPHIL / ABSOLUTE EOSINOPHIL / ABSOLUTE LYMPHOCYTE / ABSOLUTE MONOCYTE / ABSOLUTE SEGMENTED NEUTROPHIL / BASOPHIL / EOSINOPHIL / ERYTHROCYTE COUNT / HEMATOCRIT / HEMOGLOBIN / LEUKOCYTE COUNT / LYMPHOCYTE / MEAN CORPUSCULAR HEMOGLOBIN / MEAN CORPUSCULAR HEMOGLOBIN CONCENTRATION / MEAN CORPUSCULAR VOLUME / MONOCYTE / NEUTROPHIL / NUCLEATED RED BLOOD CELLS / PLATELET COUNT: tissue Blood; for ALANINE AMINOTRANSFERASE / ALBUMIN / ALKALINE PHOSPHATASE / ASPARTATE AMINOTRANSFERASE / BLOOD UREA NITROGEN / CARBON DIOXIDE / CHLORIDE / CHOLESTEROL / CREATINE PHOSPHOKINASE / CREATININE / GLUCOSE / LACTATE DEHYDROGENASE / LIPASE / PHOSPHORUS / POTASSIUM / SODIUM / TOTAL BILIRUBIN / TOTAL PROTEIN / URIC ACID: tissue Plasma
[1] = 0 mg/kg, 72 h, dose level Control, time 3 day
[2] = 0 mg/kg, 120 h, dose level Control, time 5 day
[3] = 5 mg/kg, 72 h, dose level Low, time 3 day

## C[N+](C)(C)CCOC(N)=O.[Cl-] [CARBACHOL]
[1]
  ABSOLUTE BASOPHIL: 0 CELLS/uL
  ABSOLUTE EOSINOPHIL: 0 CELLS/uL
  ABSOLUTE LYMPHOCYTE: 8482.5 CELLS/uL
  ABSOLUTE MONOCYTE: 63.83 CELLS/uL
  ABSOLUTE SEGMENTED NEUTROPHIL: 887 CELLS/uL
  BASOPHIL: 0%
  EOSINOPHIL: 0%
  ERYTHROCYTE COUNT: 5.49 x10E6/uL
  HEMATOCRIT: 34.5%
  HEMOGLOBIN: 13.33 G/DL
  LEUKOCYTE COUNT: 9.43 x10E3/uL
  LYMPHOCYTE: 90.17%
  MEAN CORPUSCULAR HEMOGLOBIN: 24.3 pg
  MEAN CORPUSCULAR HEMOGLOBIN CONCENTRATION: 38.63 G/DL
  MEAN CORPUSCULAR VOLUME: 62.88 fL
  MONOCYTE: 0.67%
  NEUTROPHIL: 9.17%
  NUCLEATED RED BLOOD CELLS: 0.67 /100WBC
  PLATELET COUNT: 1022.83 x10E3/uL
  ALANINE AMINOTRANSFERASE: 50.5 u/L
  ALBUMIN: 4.08 G/DL
  ALKALINE PHOSPHATASE: 368.33 u/L
  ASPARTATE AMINOTRANSFERASE: 87.5 u/L
  BLOOD UREA NITROGEN: 12.83 mg/dL
  CARBON DIOXIDE: 32.83 mmol/L
  CHLORIDE: 99.67 MEQ/L
  CHOLESTEROL: 79.67 mg/dL
  CREATINE PHOSPHOKINASE: 585 u/L
  CREATININE: 0.22 mg/dL
  GLUCOSE: 135.67 mg/dL
  LACTATE DEHYDROGENASE: 171 u/L
  LIPASE: 9.5 u/L
  PHOSPHORUS: 11.18 mg/dL
  POTASSIUM: 6.25 MEQ/L
  SODIUM: 144.87 MEQ/L
  TOTAL BILIRUBIN: 0.2 mg/dL
  TOTAL PROTEIN: 6.08 G/DL
  URIC ACID: 0.65 mg/dL
[2]
  ABSOLUTE BASOPHIL: 0 CELLS/uL
  ABSOLUTE EOSINOPHIL: 14.5 CELLS/uL
  ABSOLUTE LYMPHOCYTE: 7596.17 CELLS/uL
  ABSOLUTE MONOCYTE: 69.67 CELLS/uL
  ABSOLUTE SEGMENTED NEUTROPHIL: 503 CELLS/uL
  BASOPHIL: 0%
  EOSINOPHIL: 0.17%
  ERYTHROCYTE COUNT: 5.49 x10E6/uL
  HEMATOCRIT: 34.72%
  HEMOGLOBIN: 13.47 G/DL
  LEUKOCYTE COUNT: 8.18 x10E3/uL
  LYMPHOCYTE: 92.17%
  MEAN CORPUSCULAR HEMOGLOBIN: 24.57 pg
  MEAN CORPUSCULAR HEMOGLOBIN CONCENTRATION: 38.82 G/DL
  MEAN CORPUSCULAR VOLUME: 63.3 fL
  MONOCYTE: 1%
  NEUTROPHIL: 6.67%
  NUCLEATED RED BLOOD CELLS: 0 /100WBC
  PLATELET COUNT: 1141 x10E3/uL
  ALANINE AMINOTRANSFERASE: 48.33 u/L
  ALBUMIN: 4.07 G/DL
  ALKALINE PHOSPHATASE: 395.67 u/L
  ASPARTATE AMINOTRANSFERASE: 85.67 u/L
  BLOOD UREA NITROGEN: 15.83 mg/dL
  CARBON DIOXIDE: 31.33 mmol/L
  CHLORIDE: 100.83 MEQ/L
  CHOLESTEROL: 62.33 mg/dL
  CREATINE PHOSPHOKINASE: 248.33 u/L
  CREATININE: 0.2 mg/dL
  GLUCOSE: 135.67 mg/dL
  LACTATE DEHYDROGENASE: 141.33 u/L
  LIPASE: 9.5 u/L
  PHOSPHORUS: 10.73 mg/dL
  POTASSIUM: 6.07 MEQ/L
  SODIUM: 145.35 MEQ/L
  TOTAL BILIRUBIN: 0.22 mg/dL
  TOTAL PROTEIN: 6.12 G/DL
  URIC ACID: 0.63 mg/dL
[3]
  ABSOLUTE BASOPHIL: 0 CELLS/uL
  ABSOLUTE EOSINOPHIL: 50.33 CELLS/uL
  ABSOLUTE LYMPHOCYTE: 10617 CELLS/uL
  ABSOLUTE MONOCYTE: 63 CELLS/uL
  ABSOLUTE SEGMENTED NEUTROPHIL: 603 CELLS/uL
  BASOPHIL: 0%
  EOSINOPHIL: 0.33%
  ERYTHROCYTE COUNT: 5.09 x10E6/uL
  HEMATOCRIT: 32.27%
  HEMOGLOBIN: 12.67 G/DL
  LEUKOCYTE COUNT: 11.33 x10E3/uL
  LYMPHOCYTE: 93.67%
  MEAN CORPUSCULAR HEMOGLOBIN: 24.9 pg
  MEAN CORPUSCULAR HEMOGLOBIN CONCENTRATION: 39.3 G/DL
  MEAN CORPUSCULAR VOLUME: 63.33 fL
  MONOCYTE: 0.67%
  NEUTROPHIL: 5.33%
  NUCLEATED RED BLOOD CELLS: 0 /100WBC
  PLATELET COUNT: 1098.33 x10E3/uL
  ALANINE AMINOTRANSFERASE: 65.67 u/L
  ALBUMIN: 3.93 G/DL
  ALKALINE PHOSPHATASE: 297.33 u/L
  ASPARTATE AMINOTRANSFERASE: 89.67 u/L
  BLOOD UREA NITROGEN: 12 mg/dL
  CARBON DIOXIDE: 33.67 mmol/L
  CHLORIDE: 98.33 MEQ/L
  CHOLESTEROL: 74.67 mg/dL
  CREATINE PHOSPHOKINASE: 369.33 u/L
  CREATININE: 0.19 mg/dL
  GLUCOSE: 134 mg/dL
  LACTATE DEHYDROGENASE: 123 u/L
  LIPASE: 11 u/L
  PHOSPHORUS: 11.1 mg/dL
  POTASSIUM: 5.93 MEQ/L
  SODIUM: 144.17 MEQ/L
  TOTAL BILIRUBIN: 0.13 mg/dL
  TOTAL PROTEIN: 5.83 G/DL
  URIC ACID: 0.53 mg/dL
